Tested on: human corneal fibroblasts (HCF)
Assay: Time course of nuclear translocation (CD44-ICD, TAK1, JNK1, Cyclin D1, p75NTR) and CD44 immunoprecipitation in HCF treated with HC-HA/PTX3±TGFβ1±inhibitors
Format: cell-based
Conditions: HC-HA/PTX3+TGFβ1 with inhibitor 10 μM; for nuclear translocation of CD44-ICD at 5 min: immunostaining and Western blotting
Description: Human corneal fibroblasts (P3) were seeded on plastics with or without immobilized HC-HA/PTX3 complex for 72 h in DMEM+10% FBS, then serum starved for 24 h and treated with or without TGFβ1 for 24 h before being harvested for mRNA quantitation or immunostaining. For determination of protein of TGFβ receptor or p75NTR, the cells were treated with or without TGF-β1 for 48 h before collection of protein samples because the protein expression lags behind mRNA expression. For TGF-β1 ELISA, the cells were treated with or without TGF-β1 for 24 h, and then cultured in the fresh medium for another 24 h. The supernatants were collected for TGFβ1 ELISA. For TGFβ2 and TGFβ3 ELISA, the cells were treated with or without TGFβ1 for 48 h. Certain HCF were seeded on glass in DMEM+10% FBS for 24 h, then in DMEM+ITS (insulin-transferrin-selenium) for 24 h, treated with/without PBS or hyaluronic acid (HA) or HC-HA/PTX3±TGFβ1 (10 ng/ml)±Marimastat (10 μM) or ±DAPT (10 μM) or ±both for 0, 5, 15, 30 and 45 minutes before being harvested for immunostaining of CD44-ICD, JNK1, Cyclin D1 and p75NTR and for 5 minutes before being harvested for Western blotting of cytoplasmic and nuclear CD44-ICD, active MT1-MMP, and active γ-secretase after compartmental separation of the cellular components.
HCF, induced human corneal endothelial cells (HCEC), and HCEC monolayer cultures were air-dried and fixed in 4% formaldehyde, pH 7.0, for 15 min at room temperature, rehydrated in PBS, incubated with 0.2% Triton X-100 for 15 min, and rinsed three times with PBS for 5 min each. After incubation with 2% BSA to block non-specific staining for 30 min, they were incubated with the desired first antibody (all at 1:50 dilution) for 16 h at 4° C. After three washes with PBS, they were incubated with corresponding Alexa-Fluor-conjugated secondary IgG (all 1:100 dilutions) for 60 min. The samples were then counterstained with Hoechst 33342 and analyzed with Zeiss LSM 700 confocal microscope (Thornhood, N.Y.). Corresponding mouse and rabbit sera were used as negative controls for primary monoclonal and polyclonal antibodies, respectively.
The native CD44 protein was immune-precipitated by Immunoprecipitation Kit (Abcam, ab206996) with CD44 antibody (Abcam, ab157107) following the vendor's instructions.
Cell lysates were prepared in radioimmunoprecipitation assay (RIPA) buffer or non-denature lysis buffer and resolved on 4-15% (w/v) gradient acrylamide gels for Western blotting. […] Immunoreactive proteins were detected with Western Lighting Chemiluminesence.

Compound	nuclear translocation of TAK1, JNK1, Cyclin D1 and p75NTR at later time points	nuclear translocation of CD44-ICD at 5 min
C[C@H](NC(=O)Cc1cc(F)cc(F)c1)C(=O)N[C@H](C(=O)OC(C)(C)C)c1ccccc1 [DAPT]	inhibited	inhibited
CNC(=O)[C@@H](NC(=O)[C@H](CC(C)C)[C@H](O)C(=O)NO)C(C)(C)C [Marimastat]	inhibited	inhibited

From patent US20210386791A1, “METHODS OF CELLULAR REPROGRAMMING” (TissueTech, Inc., priority 2018, published 2021)
